# Earlier results in patent US20070014834A1, “Apparatus and methods of improved delivery of orally-administered therapeutic substances” (priority 2005, published 2007).
# Assays:
# capsaicin-induced cough = settings: for concentration of capsaicin required to produce a cough, compared with placebo: 10 healthy volunteers
# [1] = test system: citric acid-induced cough; settings: guinea-pigs in vivo
SMILES,"concentration of capsaicin required to produce a cough, compared with placebo (capsaicin-induced cough)",inhibition of citric acid-induced cough [1],inhibition of capsaicin-induced sensory nerve depolarization (human vagus nerve),effectiveness in stopping persistent coughs compared with codeine (capsaicin-induced cough; compared with codeine),"suppression of capsaicin-induced cough (capsaicin-induced cough; randomized, double-blind, placebo-controlled study in man)",inhibition of capsaicin-induced sensory nerve depolarization (guinea-pig vagus nerve)
COc1ccc2c3c1O[C@H]1[C@@H](O)C=C[C@H]4[C@@H](C2)N(C)CC[C@@]341 [codeine],only marginally higher,–,–,–,–,–
Cn1cnc2c1c(=O)[nH]c(=O)n2C [theobromine],around one third higher,effectively inhibits,directly inhibits,nearly a third more effective,suppresses,directly inhibits
